Assays:
[1] = system: corticospinal tract axons; experiment: Analysis of axon swellings in spinal cords of EAE mice; format: in vivo, mouse; settings: EAE mice treated during the chronic phase, FIG. 7A
Procedure: A: Histological analysis of corticospinal tract axons in spinal cords of EAE mice treated during the chronic phase of the disease.
EAE experiments were performed by immunizing YFP-H mice, that express yellow fluorescent protein in corticospinal neurons, with MOG35-55. Mice were treated with IL-4 or PBS as described above. At the last treatment day, the mice were sacrificed with an overdose of anaesthesia and transcardially perfused with 4% paraformaldehyde. Spinal cords were dissected and further processed for cryosectioning. YFP-labelled corticospinal tract axons were photographed using the Keyence BZ-9000 microscope. For quantification of axon swellings, thresholds were set in ImageJ so that stained pixels were highlighted. Thresholded swellings were counted using the ImageJ plug-in “particle analysis”.

[2] = system: hippocampal cell line HT22; experiment: CellTiter-blue cell viability assay (ctb), hippocampal cell line; format: cell-based; settings: HT22 cells, increasing concentrations, FIG. 2B
Procedure: (§1) Toxicity was checked by subjecting mouse embryonic fibroblasts (Mef) and the hippocampal cell line HT22 to a CellTiter-blue cell viability assay (ctb).
(§2) Mouse embryonic fibroblasts (Mef) (Sigma-Aldrich) and hippocampal HT22 (ThermoScientific) cells were cultured according to the manufacturer's protocols. Ctb assays were performed according to the manufacturer's protocols (Promega).

[3] = system: mouse embryonic fibroblasts (Mef); experiment: CellTiter-blue cell viability assay (ctb), fibroblasts; format: cell-based; settings: Mef cells, increasing concentrations, FIG. 2A
Procedure: as §1, §2

[4] = system: immune cells isolated from spleen; experiment: FACS of immune cells from spleen of EAE mice after nasal treatment; format: in vivo, mouse; settings: intranasal treatment of EAE mice
Procedure: (§3) A-B: Effects of incubation with IL-4 and different concentrations of Link4 and Link13 on the differentiation of A: CD11b^+ bone marrow-derived macrophages (BMDMs) into F80^+CD206^+ cells, and B: CD4^+ T cells into Gata3^+ cells. C-D: FACS results for different populations of T cells and CD11b^+MHCII^+ monocytes/macrophages/microglia of immune cells isolated from C: spleen and D: central nervous system (CNS) of EAE mice treated with PBS, IL-4 or Link4.
(§4) Subsequently, the effects of IL-4 and Link4 on immune cells were analysed when applied intranasally, similarly as in FIG. 3B. Since nasally applied treatments can enter the periphery (lungs, blood stream) it was of utmost importance to check whether the substances affected the lymphocyte populations in the spleen. A reduction was found of CD8^+ cytotoxic T-cells for Link4, whereas all CD4^+ T helper cell types were unchanged. The CD11 b+MHCII+ population of monocytes/macrophages was also not changed.
CNS and spleens were removed from EAE mice treated with nasal IL-4, Link4 or PBS at d35 and immune cells were isolated as previously described (M. Paterka, J. O. Voss, J. Werr, E. Reuter, S. Franck, T. Leuenberger, J. Herz, H. Radbruch, T. Bopp, V. Siffrin, and F. Zipp, Dendritic cells tip the balance towards induction of regulatory T cells upon priming in experimental autoimmune encephalomyelitis. J Autoimmun 67, 108-114 (2017)). For in vitro stimulation of T cells, anti-CD3 (145-2C11) and anti-CD28 (37.51) were used. The following antibodies were used for flow cytometry with the BD FACSCanto II (BD Bioscience): anti-CD4 PEcγ7 (RM4-5), anti-CD8 FITC (53-6.7), anti-CD3APC (145-2c11), anti-CD11 b bio (M1/70), anti-MHCII PE (AF6-120.1), anti-CD11 b V450 (HL311B), anti-CD45 AF605 (30-F11), anti-GM-CSF PE (MP1-22E9), anti-IL17 APC (eBio17B7), anti-TNFα AF700 (MP6-XT22), anti-IFN-γV450 (XMG1.2), anti-GATA-3 PE (TWAZ), anti-FOXP3 PEcy7(FZK-16s), anti-IL-10 APC (JESS-16E3), anti-CD4 V450 (RM4-5). All antibodies were purchased from eBioscience or Biolegend.

[5] = system: immune cells isolated from central nervous system (CNS); experiment: FACS of immune cells from CNS of EAE mice after nasal treatment; format: in vivo, mouse; settings: CNS (brain and spinal cord), intranasal treatment of EAE mice
Procedure: as §3, §4
CNS and spleens were removed from EAE mice treated with nasal IL-4, Link4 or PBS at d35 and immune cells were isolated as previously described (M. Paterka, J. O. Voss, J. Werr, E. Reuter, S. Franck, T. Leuenberger, J. Herz, H. Radbruch, T. Bopp, V. Siffrin, and F. Zipp, Dendritic cells tip the balance towards induction of regulatory T cells upon priming in experimental autoimmune encephalomyelitis. J Autoimmun 67, 108-114 (2017)). […]

RARSEIIGIGSKSIMQMDY (listed as Mus musculus) [Link4]
number of axon swellings [1]: significantly reduced | toxic effects on hippocampal neurons (cell viability) [2]: no toxic effects | toxic effects on fibroblasts (cell viability) [3]: no toxic effects | CD4+ T helper cell types [4]: unchanged | CD8+ cytotoxic T-cells [4]: reduction | CD11b+MHCII+ population of monocytes/macrophages [4]: not changed | IL-10+ cells [5]: significant rise
